Assays:
BACE1 [1] = molecular target: T1, BACE1 (Homo sapiens, UniProt P56817); test: In Vitro Enzymatic BACE FRET (Fluorescence Resonance Energy Transfer) Assay; assay type: biochemical
Outline: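 Fluorescence read-out after Tris addition raises pH to neutrality and ends the reaction. Before that, a peptide substrate carrying fluorophore and quencher across the BACE cleavage site (50 nM) is incubated with enzyme for one hour at pH 4.2 in acetate containing 10% DMSO and sub-micellar genapol.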

BACE1 [2] = molecular target: T1, BACE1; test: In Vitro BACE Cell-based Assay (HEK cell assay): Aβ40 in conditioned medium of cells stably expressing Amyloid Precursor Protein, sandwich ELISA
Outline: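 HEK cells stably expressing APP were treated 24 h with compound in 10-point dose response starting at 100 or 10 μM (0.1% DMSO). Secreted Aβ40 quantified by sandwich ELISA (pAb40 capture, biotinylated 6E10 detection, europium time-resolved fluorescence), with IC50 derived from percent inhibition versus concentration.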

[3] = Table 1, read-out: BACE1 FRET assay
[4] = Table 1, Aβ40, 24 h incubation, read-out: HEK cell assay
[5] = Table III, IC50's in uM ranges, read-out: BACE1 FRET assay
[6] = Table III, IC50's in uM ranges, read-out: HEK cell assay
[7] = in vitro BACE FRET enzyme assay, IC50 class symbols, read-out: BACE1 FRET assay
[8] = HEK cell-based assay, Aβ40 in conditioned medium, IC50 class symbols, read-out: HEK cell assay
[9] = Table IV, class symbols, read-out: BACE1 FRET assay
[10] = Table IV, class symbols, read-out: HEK cell assay

T1 sequence (P56817 46-501, species assumed): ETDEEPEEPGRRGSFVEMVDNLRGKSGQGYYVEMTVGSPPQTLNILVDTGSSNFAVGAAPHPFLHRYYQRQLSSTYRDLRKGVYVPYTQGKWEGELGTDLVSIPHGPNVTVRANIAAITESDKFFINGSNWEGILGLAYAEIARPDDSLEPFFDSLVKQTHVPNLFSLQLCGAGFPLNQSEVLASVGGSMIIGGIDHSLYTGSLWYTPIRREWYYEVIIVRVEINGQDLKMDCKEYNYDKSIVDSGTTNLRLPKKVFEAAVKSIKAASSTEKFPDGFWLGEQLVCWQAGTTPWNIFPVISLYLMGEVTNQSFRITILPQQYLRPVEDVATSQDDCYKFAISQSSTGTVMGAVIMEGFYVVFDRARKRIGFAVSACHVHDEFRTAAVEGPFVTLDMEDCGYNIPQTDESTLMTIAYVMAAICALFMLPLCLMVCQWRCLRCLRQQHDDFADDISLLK

**Q.** `COc1ccc2c(c1)C1(COC(N)=N1)c1cc(-c3cc(Cl)c(C)cc3F)ccc1O2` (centres unmarked) [Example 23, 2′-(5-chloro-2-fluoro-4-methylphenyl)-7′-methoxyspiro[1,3-oxazole-4,9′-xanthen]-2-amine] was tested. Which IC50 (BACE1 [1]; [3]) did it give?
**A.** 1 to 5 µM

**Q.** And the IC50 (BACE1 [2]; [4])?
**A.** > 5 µM

**Q.** With `CC(C)(C)C[C@H](F)c1ccc2c(c1)[C@]1(COC(N)=N1)c1cc(-c3cncnc3)ccc1O2` [116a, (4S)-2′-((1S)-1-fluoro-3,3-dimethylbutyl)-7′-(5-pyrimidinyl)spiro[1,3-oxazole-4,9′-xanthen]-2-amine] as the compound, how does the IC50 (BACE1 [1]; [5]) read?
**A.** < 0.1 µM

**Q.** What about the IC50 (BACE1 [2]; [6]) of the same compound?
**A.** 0.1 to 1 µM

**Q.** Which IC50 (BACE1 [1]; BACE1 FRET assay (uM)) does the source give for `NC1=N[C@@]2(CO1)c1cc(-c3cccnc3F)ccc1Oc1cnc(-c3ccncc3)cc12` [Example 515, (5S)-7-(2-fluoro-3-pyridinyl)-3-(4-pyridinyl)spiro[chromeno[2,3-c]pyridine-5,4′-[1,3]oxazol]-2′-amine] here?
**A.** < 0.1 µM

**Q.** And the IC50 (BACE1 [2]; HEK cell assay (uM), HEK cells)?
**A.** < 0.1 µM

**Q.** `CC1(COc2cnc3c(c2)[C@]2(COC(N)=N2)c2cc(-c4cc(F)ccc4F)ccc2O3)COC1` [compound 412] was tested. Which IC50 (BACE1 [1]; [7]) did it give?
**A.** < 0.1 µM

**Q.** And the IC50 (BACE1 [2]; [8])?
**A.** < 0.1 µM

**Q.** `CC(C)(C)COc1ccc2c(c1)[C@@]1(COC(N)=N1)c1cc(-c3ncccn3)ccc1O2` [compound 186] was tested. Which IC50 (BACE1 [1]; [5]) did it give?
**A.** < 0.1 µM

**Q.** What about the IC50 (BACE1 [2]; [6]) of the same compound?
**A.** < 0.1 µM

**Q.** Which IC50 (BACE1 [1]; [3]) does the source give for `Cc1ccc2c(c1)Oc1ccc(-c3cccc(Cl)c3F)cc1C21COC(N)=N1` (centres unmarked) [Example 26, 2′-(3-chloro-2-fluorophenyl)-6′-methylspiro[1,3-oxazole-4,9′-xanthen]-2-amine] here?
**A.** > 5 µM

**Q.** And the IC50 (BACE1 [2]; [4])?
**A.** 1 to 5 µM

**Q.** Which results are given for `CC(C)(C)/C=C/c1ccc2c(c1)[C@]1(COC(N)=N1)c1cc(-c3cncnc3)ccc1O2` [compound 963]?
**A.** IC50 (BACE1 [1]; read-out: BACE1 FRET assay): < 0.1 µM; IC50 (BACE1 [2]; read-out: HEK cell assay): < 0.1 µM

**Q.** What does the source list for `NC1=N[C@@]2(CO1)c1ccccc1Oc1ccc(-c3cc(F)cnc3Cl)cc12` [compound 619]?
**A.** IC50 (BACE1 [1]; [9]): 1 to 5 µM; IC50 (BACE1 [2]; [10]): 0.1 to 1 µM

**Q.** What does the source list for `CC(C)(C)COc1ccc2c(c1)[C@]1(COC(N)=N1)c1cc(-c3csc(-n4ccnc4)n3)ccc1O2` [compound 214]?
**A.** IC50 (BACE1 [1]; [5]): 0.1 to 1 µM; IC50 (BACE1 [2]; [6]): 1 to 5 µM

**Q.** For `COc1cnc2c(c1)[C@]1(COC(N)=N1)c1cc(Br)ccc1O2` [compound 542], which IC50 (BACE1 [1]; [9]) is on record?
**A.** 1 to 5 µM

**Q.** What about the IC50 (BACE1 [2]; [10]) of the same compound?
**A.** > 5 µM

**Q.** What does the source list for `COc1ccc2c(c1)[C@@]1(COC(N)=N1)c1cc(Br)cc(F)c1O2` [compound 406]?
**A.** IC50 (BACE1 [1]; [7]): > 5 µM; IC50 (BACE1 [2]; [8]): > 5 µM

**Q.** Which IC50 (BACE1 [1]; [9]) does the source give for `CC(C)(C)COc1ccc2c(c1)[C@]1(COC(N)=N1)c1cc(-c3ccc(F)nc3)cnc1O2` [compound 869] here?
**A.** 0.1 to 1 µM

**Q.** And the IC50 (BACE1 [2]; [10])?
**A.** 1 to 5 µM

**Q.** `COc1ccc2c(c1)[C@]1(COC(N)=N1)c1cc(NC(=O)[C@@H](C)OC)ccc1O2` [compound 536] was tested. Which IC50 (BACE1 [1]; [9]) did it give?
**A.** 0.1 to 1 µM

**Q.** And the IC50 (BACE1 [2]; [10])?
**A.** 0.1 to 1 µM

**Q.** Which results are given for `NC1=N[C@@]2(CO1)c1cc(-c3cccnc3F)ccc1Oc1c(F)cc(C3CCOCC3)cc12` [compound 385, (4S)-4′-fluoro-7′-(2-fluoro-3-pyridinyl)-2′-(tetrahydro-2H-pyran-4-yl)spiro[1,3-oxazole-4,9′-xanthen]-2-amine]?
**A.** IC50 (BACE1 [1]; [7]): < 0.1 µM; IC50 (BACE1 [2]; [8]): < 0.1 µM

**Q.** What does the source list for `CC(C)(C)OC(=O)CCc1ccc2c(c1)[C@]1(COC(N)=N1)c1cc(-c3cncnc3)ccc1O2` [compound 826]?
**A.** IC50 (BACE1 [1]; [9]): 0.1 to 1 µM; IC50 (BACE1 [2]; [10]): 1 to 5 µM

**Q.** How did the IC50 (BACE1 [1]; [3]) turn out when `COc1ccc2c(c1)C1(COC(N)=N1)c1cc(-c3cccc(C)c3)ccc1O2` (centres unmarked) [Example 20, 2′-methoxy-7′-(3-methylphenyl)spiro[1,3-oxazole-4,9′-xanthen]-2-amine] was run?
**A.** 1 to 5 µM

**Q.** And the IC50 (BACE1 [2]; [4])?
**A.** > 5 µM

**Q.** With `N#Cc1ccc(-c2ccc3c(c2)[C@]2(COC(N)=N2)c2cc(-c4cccnc4)ccc2O3)cc1` [compound 204] as the compound, how does the IC50 (BACE1 [1]; [5]) read?
**A.** < 0.1 µM

**Q.** What about the IC50 (BACE1 [2]; [6]) of the same compound?
**A.** < 0.1 µM

**Q.** How did the IC50 (BACE1 [1]; read-out: BACE1 FRET assay) turn out when `NC1=N[C@@]2(CO1)c1cc(C(=O)NC3CC3)ccc1Oc1ccc(-c3ccccc3)cc12` [compound 518] was run?
**A.** < 0.1 µM

**Q.** And the IC50 (BACE1 [2]; HEK cells, read-out: HEK cell assay)?
**A.** < 0.1 µM

**Q.** Which results are given for `Cn1cc(-c2cccc(-c3ccc4c(c3)[C@@]3(COC(N)=N3)c3cc(-c5cnn(C)c5)ncc3O4)c2)cn1` [compound 328]?
**A.** IC50 (BACE1 [1]; [7]): < 0.1 µM; IC50 (BACE1 [2]; [8]): 0.1 to 1 µM

**Q.** Which results are given for `COC(C)(C)C#Cc1cnc2c(c1)[C@@]1(COC(N)=N1)c1cc(-c3ccnnc3)ccc1O2` [compound 681]?
**A.** IC50 (BACE1 [1]; read-out: BACE1 FRET assay): 1 to 5 µM; IC50 (BACE1 [2]; read-out: HEK cell assay): > 5 µM

**Q.** For `COCC(=O)Nc1ccc2c(c1)[C@@]1(COC(N)=N1)c1cc(OCC(C)(C)C)ccc1O2` [compound 375], which IC50 (BACE1 [1]; [7]) is on record?
**A.** < 0.1 µM

**Q.** What about the IC50 (BACE1 [2]; [8]) of the same compound?
**A.** 0.1 to 1 µM

**Q.** `COc1ccc2c(c1)[C@@]1(COC(N)=N1)c1c(ccc(-c3cncnc3)c1F)O2` [compound 816] was tested. Which IC50 (BACE1 [1]; [9]) did it give?
**A.** > 5 µM

**Q.** And the IC50 (BACE1 [2]; [10])?
**A.** > 5 µM

**Q.** Which IC50 (BACE1 [1]; read-out: BACE1 FRET assay) does the source give for `COc1ccc2c(c1)[C@@]1(COC(N)=N1)c1cc(-c3ccc(OCC4CC4)nc3)cnc1O2` [compound 668] here?
**A.** 0.1 to 1 µM

**Q.** What about the IC50 (BACE1 [2]; read-out: HEK cell assay) of the same compound?
**A.** 0.1 to 1 µM

**Q.** Which IC50 (BACE1 [1]; [5]) does the source give for `NC1=N[C@]2(CO1)c1cc(Oc3ccccn3)ccc1Oc1ccc(-c3cncnc3)cc12` [compound 209] here?
**A.** < 0.1 µM

**Q.** And the IC50 (BACE1 [2]; [6])?
**A.** 0.1 to 1 µM

**Q.** What does the source list for `NC1=N[C@]2(CO1)c1cc(OCC3CCCO3)ccc1Oc1ccc(-c3cncnc3)cc12` (stereo partly drawn) [Example 60, (4S)-2′-(5-pyrimidinyl)-7′-(tetrahydro-2-furanylmethoxy)spiro[1,3-oxazole-4,9′-xanthen]-2-amine]?
**A.** IC50 (BACE1 [1]; Table II, read-out: BACE1 FRET assay): < 0.1 µM; IC50 (BACE1 [2]; Table II, Aβ40, 24 h incubation, read-out: HEK cell assay): < 0.1 µM

— US8426447B2, “Spiro-tricyclic ring compounds as beta-secretase modulators and methods of use” (Amgen Inc., priority 2008, dated 2013)
